Measured values from patent US8293781B2, “Indole derivatives having cPLA2 inhibiting activity and applications and production methods of the same” (Daiichi Sankyo Company, Limited, priority 2007, dated 2012).
Where a name gives a salt, the structure may show the parent alone.

What was measured:
[1] = test system: TPA-induced mouse dermatitis model; test: TPA-induced mouse dermatitis model (ear thickness); format: in vivo; conditions: 50 mg/kg orally 30 minutes before TPA, 6 hours after TPA, C57BL/6 mice
Experimental: Phorbol ester (TPA) was applied to the ear to elicite acute inflammation having ear edema as a main symptom. In the present test model, it is known that arachidonic acid metabolites, constituting various lipid mediators, are involved in inflammation. By this Experiment, it is possible to evaluate the anti-inflammatory action in vivo of anti-inflammatory drugs acting on the arachidonic acid cascade.
The Experiment was performed with reference to the method of Chang et al. (see Chang J., Eur J Pharmacol 142: 197, 1987). That is, the ear of female C57BL/6 mice (Charles River Japan) were painted with 20 μl of TPA in an acetone solution (concentration 50 μg/ml) to induce dermatitis at the ear. The ear thicknesses before application of TPA and 6 hours after application of TPA were measured using a dial gauge and the increase in ear thickness caused by inflammation was calculated. The test compound or the 0.5% hydroxypropyl cellulose solution as vehicle was administered orally to the mice 30 minutes before application of TPA. Note that the number of mice used in the test was made six per group.
Based on the measurement value, the action of each test compound in suppressing the increase in ear thickness due to application of TPA was evaluated.

[2] = test system: Cys-LTs production in rat mast cell like cell line RBL-2H3; test: Calcium ionophore-induced Cys-LTs production system using RBL-2H3; format: cell-based; conditions: 1 h, RBL-2H3, A23187 5 μM, one hour
Experimental: (§1) For the evaluation by LTB4 and Cys-LTs production inhibiting activity, the calcium ionophore-induced LTB4 and Cys-LTs production system using the rat mast cell like cell line RBL-2H3 with reference to the method of Ishiwara et al. (see Ishiwara M. et al., J Pharmacol Exp Ther 307: 583, 2003) was used. That is, rat mast cell like cell line RBL-2H3 cells were suspended in Dulbecco's modified Eagle's medium (Nacalai Tesque) containing 10% bovine fetal serum (BioWhittaker) and 10 μg/ml gentamycin (Invitrogen). The infiltrating cell suspension 200 μl containing 1×10^5 cells per well was inoculated to 96-well culture plate and cultured over night under conditions of 5% CO2 and 37° C. The culture supernatant was removed, then the test compound solution or solvent 50 μl was added. After 30 minutes preculture, calcium ionophore (A23187) was added to a final concentration of 5 μM to induce leukotriene production.
(§2) One hour after calcium ionophore stimulus, the culture supernatant was recovered and the amounts of LTB4 and Cys-LTs in the supernatant were measured using an EIA kit (made by Amersham). Based on the measurement values, the test compound concentrations suppressing 50% of the mediator production at the time of non-addition of a compound (IC50 value) were calculated.

[3] = test system: PGD2 production in rat mast cell like cell line RBL-2H3; test: Antigen-induced PGD2 production system using RBL-2H3 sensitized by DNP specific IgE; format: cell-based; conditions: 0.5 h, RBL-2H3, anti-DNP-IgE sensitized, antigen 10 μg/ml, 30 minutes
Experimental: To evaluate the PGD2 production inhibiting activity, the antigen-induced PGD2 production system using rat mast cell like cell line RBL-2H3 sensitized by a dinitrophenol (DNP) specific IgE with reference to the method of Yamashita et al. (see Yamashita, M. et al., Br J Pharmacol 129: 367, 2000) was used. That is, rat mast cell like cell line RBL-2H3 cells were suspended in a Dulbecco's modified Eagle's medium (Nacalai Tesque) containing 10% bovine fetal serum (BioWhittaker) and 10 μg/ml gentamycin (Invitrogen). The infiltrating cell suspension 200 μl containing 1×10^5 cells per well was inoculated to 96-well culture plate and cultured over night under conditions of 5% CO2 and 37° C. The culture supernatant was removed, then the suspension was cultured for 2 hours in the presence of an anti-DNP-IgE antibody (1 μg/ml) for 2 hours to sensitize it. After the sensitization, the supernatant was removed and the test compound solution or solvent was added. The resultant product was precultured for 30 minutes, then 10 μg/ml of antigen (DNP-human serum albumin conjugate) was added to elicite PGD2 production.
30 minutes after antigen stimulus, the culture supernatant was recovered and the amount of PGD2 in the supernatant was measured using an EIA kit (made by Cayman). Based on the measurement value, the test compound concentration (IC50 value) suppressing the amount of PGD2 production at the time of nonaddition of the compound by 50% was calculated.

[4] = biological target: T1, cPLA2 crudely purified from the cytoplasm fraction of U937 (Homo sapiens, UniProt P47712); test: Measurement of cPLA2 inhibitory activity (release of [14C]-arachidonic acid from phosphatidyl choline liposome); format: biochemical; conditions: cPLA2 from U937 cytoplasm fraction, [14C]arachidonyl-phosphatidyl choline liposome, 37° C., 60 minutes; read-out: cPLA2 inhibitory activity, 50% inhibiting concentration IC50
T1 construct: cPLA2 crudely purified from the cytoplasm fraction of U937; endogenous in cells; host or cells: U937 cells (cytoplasm fraction, crude purification)
T1 sequence (P47712 1-749): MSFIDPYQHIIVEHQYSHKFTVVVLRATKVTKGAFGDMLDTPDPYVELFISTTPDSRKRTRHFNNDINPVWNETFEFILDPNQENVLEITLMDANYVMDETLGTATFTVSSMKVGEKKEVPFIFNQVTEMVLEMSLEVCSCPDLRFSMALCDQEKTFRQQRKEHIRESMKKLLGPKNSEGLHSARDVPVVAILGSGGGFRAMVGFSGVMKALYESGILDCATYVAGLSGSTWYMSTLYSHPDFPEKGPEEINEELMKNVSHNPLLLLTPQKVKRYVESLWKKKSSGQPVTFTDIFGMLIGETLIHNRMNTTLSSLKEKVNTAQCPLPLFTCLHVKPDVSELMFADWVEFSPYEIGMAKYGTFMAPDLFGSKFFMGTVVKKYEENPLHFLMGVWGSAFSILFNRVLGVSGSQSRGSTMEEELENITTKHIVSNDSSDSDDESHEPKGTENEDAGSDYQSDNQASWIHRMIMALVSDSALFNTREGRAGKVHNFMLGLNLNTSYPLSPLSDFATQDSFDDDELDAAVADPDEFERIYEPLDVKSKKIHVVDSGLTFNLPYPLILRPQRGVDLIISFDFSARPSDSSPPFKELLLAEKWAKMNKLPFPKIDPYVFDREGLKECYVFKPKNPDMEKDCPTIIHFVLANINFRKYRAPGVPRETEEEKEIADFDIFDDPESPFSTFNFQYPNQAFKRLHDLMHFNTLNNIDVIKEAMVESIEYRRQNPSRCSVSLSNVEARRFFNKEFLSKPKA
Method in brief: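 The read-out is radioactivity from extracted [14C]-arachidonic acid, freed over 60 min at 37° C from liposomes of 14C-arachidonyl phosphatidylcholine (10 μM PC in the added solution). Buffer was 50 mM HEPES pH 7.5 with Ca2+, DTT, NaCl and BSA. IC50 was derived from inhibition relative to enzyme control minus no-enzyme control.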

[5] = test system: LTB4 production in rat mast cell like cell line RBL-2H3; test: Calcium ionophore-induced LTB4 production system using RBL-2H3; format: cell-based; conditions: 1 h, RBL-2H3, A23187 5 μM, one hour
Experimental: as §1, §2

SMILES: O=C(O)CCc1ccc2c(c1)c(CCc1ccccc1)cn2-c1ccc(OC(F)(F)F)cc1 [Example 193, 3-{3-(2-phenylethyl)-1-[4-(trifluoromethoxy)phenyl]-1H-indol-5-yl}propanoic acid 2-amino-2-(hydroxymethyl)propane-1,3-diol salt (1:1)]
- Suppression rate of increase in ear thickness [1]: 19.4%
- IC50 [2]: 1380 nM
- IC50 [3]: 820 nM
- IC50 [4]: 141 nM
- IC50 [5]: 630 nM
